Results on 32 compounds are retold here after patent US20160263087A1, “NOVEL 4-(INDOL-3-YL)-PYRAZOLE DERIVATIVES, PHARMACEUTICAL COMPOSITIONS AND METHODS FOR USE” (ITEOS THERAPEUTICS, priority 2013, published 2016).

The target of one data set is human TDO2 (Homo sapiens, UniProt P48775). The data set can be described thus: Assay for TDO2 enzymatic activity determination. Type of data set: biochemical. On the set-up: made in house. The settings on record: human recombinant TDO2, L-Trp 1 mM, room temperature, one hour, kynurenine absorbance at 480 nm. Here is the method: To measure the TDO2 activity, the reaction mixture contained (final concentrations) potassium phosphate buffer (50 mM, pH 7.5), ascorbic acid (0.25 M), methylene blue (0.125 μM), catalase (40 units/mL, from bovine liver, Sigma), and human recombinant TDO2 enzyme (prepared as described in Dolusic et al. J. Med. Chem.; 2011, 54, 5320-5334; 0.9 μg) without or with the compounds of the present invention at the indicated concentrations (total volume 112.5 μL). The reaction was initiated by the addition of 37.5 μL of L-Trp (final concentration 1 mM) at room temperature. The reaction was conducted at room temperature during one hour and stopped by the addition of 30 μL of 30% (w/v) trichloroacetic acid.
Chain of human TDO2 (P48775 whole entry): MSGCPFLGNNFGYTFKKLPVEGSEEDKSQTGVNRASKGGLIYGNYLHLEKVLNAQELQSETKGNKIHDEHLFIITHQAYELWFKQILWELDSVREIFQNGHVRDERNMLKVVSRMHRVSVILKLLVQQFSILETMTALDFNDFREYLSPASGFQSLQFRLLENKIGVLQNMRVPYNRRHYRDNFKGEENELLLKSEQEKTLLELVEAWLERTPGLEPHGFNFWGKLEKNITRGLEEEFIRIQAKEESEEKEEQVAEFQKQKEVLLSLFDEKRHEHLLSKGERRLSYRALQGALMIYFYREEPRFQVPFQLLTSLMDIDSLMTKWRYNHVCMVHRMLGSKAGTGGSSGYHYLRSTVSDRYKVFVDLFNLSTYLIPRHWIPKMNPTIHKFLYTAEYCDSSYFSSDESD
To convert N-formylkynurenine into kynurenine, the reaction mixture was incubated at 65° C. for 30 min. Then 150 μL of the reaction mixture was mixed with 120 μL of 2.5% (w/v) 4-(dimethylamino)-benzaldehyde in acetic acid and incubated for 5 min at room temperature. Kynurenine concentrations were determined by measuring the absorbance at 480 nm. A standard curve was made with pure kynurenine. The TDO activity was measured as described above using ten serial concentrations of the compounds of the present invention. Data were fitted using the Prism software (GraphPad Software, Inc.).

Turning to `CS(=O)(=O)CCn1cc(-c2c[nH]c3cc(F)c(F)cc23)cn1` [Compound 32, 5,6-difluoro-3-(1-(2-(methylsulfonyl)ethyl)-1H-pyrazol-4-yl)-1H-indole], the melting point (commonly the temperature, or range, at which the solid turns liquid) was 170.6 to 171.9 °C.
Consider `C=CC(=O)N1CCC(n2cc(-c3c[nH]c4cc(F)ccc34)cn2)CC1` [Compound 102, 1-(4-(4-(6-fluoro-1H-indol-3-yl)-1H-pyrazol-1-yl)piperidin-1-yl)prop-2-en-1-one], for which, at human TDO2, the half-inhibitory concentration (IC50) – broadly, the concentration at which inhibition is half-maximal – was in the range of 1 to 10 µM.
On to `O=S1(=O)CCC(Cn2cc(-c3c[nH]c4cc(F)ccc34)cn2)CC1` [Compound 60, 4-((4-(6-fluoro-1H-indol-3-yl)-1H-pyrazol-1-yl)methyl)tetrahydro-2H-thiopyran 1,1-dioxide], for which the melting point is 193.1 to 194.1 °C.
Turning to `Cc1nn(CCS(C)(=O)=O)c(C)c1-c1c[nH]c2cc(F)ccc12` [Compound 33, 3-(3,5-dimethyl-1-(2-(methylsulfonyl)ethyl)-1H-pyrazol-4-yl)-6-fluoro-1H-indole], the concentration for half-maximal inhibition (IC50) at human TDO2 fell in the range of 10 to 100 µM.
On the same count and under the same terms, the result for `CC(=O)N1CCC(n2cc(-c3c[nH]c4cc(F)ccc34)c(C)n2)CC1` [Compound 94, 1-(4-(4-(6-fluoro-1H-indol-3-yl)-3-methyl-1H-pyrazol-1-yl)piperidin-1-yl)ethanone] reads 10 to 100 µM.
`Fc1ccc2c(-c3cnn(C4CCNCC4)c3)c[nH]c2c1` [Compound 78, 6-fluoro-3-(1-(piperidin-4-yl)-1H-pyrazol-4-yl)-1H-indole]: the melting point lay in the range of 240.1 to 241.8 °C.
The same measure, in the same setting: next, `Fc1ccc2c(-c3cnn(CC4CCOCC4)c3)c[nH]c2c1` [Compound 58, 6-fluoro-3-(1-((tetrahydro-2H-pyran-4-yl)methyl)-1H-pyrazol-4-yl)-1H-indole]: 138.9 to 139.6 °C.
On the same count and under the same terms, next, `CN(C)C(=O)N1CCC(n2cc(-c3c[nH]c4cc(F)ccc34)cn2)CC1` [Compound 90, 4-(4-(6-fluoro-1H-indol-3-yl)-1H-pyrazol-1-yl)-N,N-dimethylpiperidine-1-carboxamide]: 223 to 224.6 °C; `CC(C)C(=O)N1CCC(n2cc(-c3c[nH]c4cc(F)ccc34)cn2)CC1` [Compound 86, 1-(4-(4-(6-fluoro-1H-indol-3-yl)-1H-pyrazol-1-yl)piperidin-1-yl)-2-methylpropan-1-one]: 210.2 to 211 °C; `CS(=O)(=O)CCn1cc(-c2c[nH]c3cc(F)ccc23)cn1` [Compound 31, 6-fluoro-3-(1-(2-(methylsulfonyl)ethyl)-1H-pyrazol-4-yl)-1H-indole]: 153.3 to 155.1 °C.
`CC(=O)N1CCC(n2ncc(-c3c[nH]c4cc(F)ccc34)c2C)CC1` [Compound 95, 1-(4-(4-(6-fluoro-1H-indol-3-yl)-5-methyl-1H-pyrazol-1-yl)piperidin-1-yl)ethanone]: the 50% inhibitory concentration (IC50) on human TDO2 lay in the range of 1 to 10 µM.
Same read-out and setting: the result for `Cc1c(-c2c[nH]c3cc(F)ccc23)cnn1CC1CCNCC1` [Compound 57, 6-fluoro-3-(5-methyl-1-(piperidin-4-ylmethyl)-1H-pyrazol-4-yl)-1H-indole] reads 1 to 10 µM.
For `O=C(CO)N1CCC(n2cc(-c3c[nH]c4cc(F)ccc34)cn2)CC1` [Compound 84, 1-(4-(4-(6-fluoro-1H-indol-3-yl)-1H-pyrazol-1-yl)piperidin-1-yl)-2-hydroxyethanone], the melting point fell in the range of 99.9 to 102.1 °C.
In turn, `CC(=O)NCCn1cc(-c2c[nH]c3cc(F)ccc23)cn1` [Compound 21, N-(2-(4-(6-fluoro-1H-indol-3-yl)-1H-pyrazol-1-yl)ethyl)acetamide] yielded a melting point of 179.5 to 180.8 °C.
Take `O=S(=O)(C1CC1)N1CCC(n2cc(-c3c[nH]c4cc(F)ccc34)cn2)CC1` [Compound 97, 3-(1-(1-(cyclopropylsulfonyl)piperidin-4-yl)-1H-pyrazol-4-yl)-6-fluoro-1H-indole]: the IC50 at human TDO2 fell in the range of 1 to 10 µM.
The compound `Fc1cc2[nH]cc(-c3cnn(CC4CCNCC4)c3)c2cc1F` [Compound 44, 5,6-difluoro-3-(1-(piperidin-4-ylmethyl)-1H-pyrazol-4-yl)-1H-indole] registered a melting point of 167.1 to 168.9 °C.
On to `CC(C)(C)C(=O)N1CCC(n2cc(-c3c[nH]c4cc(F)ccc34)cn2)CC1` [Compound 87, 1-(4-(4-(6-fluoro-1H-indol-3-yl)-1H-pyrazol-1-yl)piperidin-1-yl)-2,2-dimethylpropan-1-one], for which the melting point was in the range of 231 to 232 °C.
With `COCCS(=O)(=O)N1CCC(n2cc(-c3c[nH]c4cc(F)ccc34)cn2)CC1` [Compound 96, 6-fluoro-3-(1-(1-((2-methoxyethyl)sulfonyl)piperidin-4-yl)-1H-pyrazol-4-yl)-1H-indole], the IC50 at human TDO2 was 1 to 10 µM.
On the same count and under the same terms, the result for `Cc1nn(CCC(N)=O)c(C)c1-c1c[nH]c2cc(F)ccc12` [Compound 9, 3-(4-(6-fluoro-1H-indol-3-yl)-3,5-dimethyl-1H-pyrazol-1-yl)propanamide] reads 1 to 10 µM.
Regarding `CNCCn1cc(-c2c[nH]c3cc(F)ccc23)cn1` [Compound 24, 2-(4-(6-fluoro-1H-indol-3-yl)-1H-pyrazol-1-yl)-N-methylethanamine], the melting point lay within 94.2 to 95.2 °C.
Turning to `O=S(=O)(N1CCC(n2cc(-c3c[nH]c4cc(F)ccc34)cn2)CC1)C(F)(F)F` [Compound 92, 6-fluoro-3-(1-(1-((trifluoromethyl)sulfonyl)piperidin-4-yl)-1H-pyrazol-4-yl)-1H-indole], at human TDO2, the 50% inhibitory concentration (IC50) was in the range of 1 to 10 µM.
For the compound `Cc1nn(CC2CCNCC2)cc1-c1c[nH]c2cc(F)ccc12` [Compound 56, 6-fluoro-3-(3-methyl-1-(piperidin-4-ylmethyl)-1H-pyrazol-4-yl)-1H-indole], the IC50 on human TDO2 is under 1 µM.
For `CN1CCC(n2cc(-c3c[nH]c4cc(F)ccc34)cn2)CC1` [Compound 91, 6-fluoro-3-(1-(1-methylpiperidin-4-yl)-1H-pyrazol-4-yl)-1H-indole], the melting point fell in the range of 222.8 to 223.7 °C.
Regarding `CCS(=O)(=O)N1CCC(n2cc(-c3c[nH]c4cc(F)ccc34)cn2)CC1` [Compound 98, 3-(1-(1-(ethylsulfonyl)piperidin-4-yl)-1H-pyrazol-4-yl)-6-fluoro-1H-indole], the IC50 on human TDO2 is 1 to 10 µM.
The same measure, in the same setting: next, `NC(=O)CCn1cc(-c2c[nH]c3cc(F)c(F)cc23)cn1` [Compound 8, 3-(4-(5,6-difluoro-1H-indol-3-yl)-1H-pyrazol-1-yl)propanamide]: 1 to 10 µM.
`O=C(O)CCC(=O)N1CCC(n2cc(-c3c[nH]c4cc(F)ccc34)cn2)CC1` [Compound 80, 4-(4-(4-(6-fluoro-1H-indol-3-yl)-1H-pyrazol-1-yl)piperidin-1-yl)-4-oxobutanoic acid] yielded a melting point of 226 to 228 °C.
For `CN(C)CC(=O)N1CCC(n2cc(-c3c[nH]c4cc(F)ccc34)cn2)CC1` [Compound 83, 2-(dimethylamino)-1-(4-(4-(6-fluoro-1H-indol-3-yl)-1H-pyrazol-1-yl)piperidin-1-yl)ethanone], the melting point lay in the range of 193.7 to 196.1 °C.
As to `Cc1nn(CC2CCNCC2)c(C)c1-c1c[nH]c2cc(F)ccc12` [Compound 55, 3-(3,5-dimethyl-1-(piperidin-4-ylmethyl)-1H-pyrazol-4-yl)-6-fluoro-1H-indole], on human TDO2, the half-inhibitory concentration (IC50) fell in the range of 10 to 100 µM.
For `CC(C)S(=O)(=O)N1CCC(n2cc(-c3c[nH]c4cc(F)ccc34)cn2)CC1` [Compound 99, 6-fluoro-3-(1-(1-(isopropylsulfonyl)piperidin-4-yl)-1H-pyrazol-4-yl)-1H-indole], at human TDO2, the half-inhibitory concentration (IC50) fell in the range of 1 to 10 µM.
`NC(=O)CCn1cc(-c2c[nH]c3cc(F)ccc23)cn1` [Compound 7, 3-(4-(6-fluoro-1H-indol-3-yl)-1H-pyrazol-1-yl)propanamide] gave a melting point of 173.3 to 175 °C.
For the compound `O=C(C1CC1)N1CCC(n2cc(-c3c[nH]c4cc(F)ccc34)cn2)CC1` [Compound 88, cyclopropyl(4-(4-(6-fluoro-1H-indol-3-yl)-1H-pyrazol-1-yl)piperidin-1-yl)methanone], the melting point lay within 190.7 to 191.4 °C.
On the same count and under the same terms, the result for `CC(Cn1cc(-c2c[nH]c3cc(F)ccc23)cn1)C(N)=O` (single isomer, unassigned) [Compound 35, 3-(4-(6-fluoro-1H-indol-3-yl)-1H-pyrazol-1-yl)-2-methylpropanamide] reads 184.5 to 185.5 °C.
